Legend:
PC12 cells [1] = experiment: Morphological comparison of PC12 cells treated with Aβ and caspase-3 inhibitors; conditions: inhibitor alone; 28 μM chen-1, 200 nM Ac-Asp-Glu-Val-Asp-aldehyde; phase contrast microscope, 72 hours
Experimental: Culture of cells: PC 12 cells were obtained from XiCan Tang of Institute of Material Medica, CAS. Media were DMEM(HG) containing 10% calf serum. PC12 were incubated in an incubator with constant temperature with 5% carbon dioxide at 37° C. The cells were inoculated in Petri dishes and 96-well plates in the amount […], the compounds of the present invention were added into after 12 hours, and […] of apoptosis inducer, Aβ25-35, was added after 24 hours.

PC12 cells [2] = experiment: Flow cytometry detection of apoptotic PC12 cells (propidium iodide, sub-G1); format: cell-based
Experimental: Media were DMEM(HG) containing 10% calf serum.
2×10^6 cells were collected at different time respectively after PC12 were treated in the same method. Cell precipitation was washed twice with PBR, followed by adding ice ethanol, and the resulting solution was blown to disperse the cells into single, fixed for 2 hours at 4° C. Before staining, the solution was centrifuged at 300 rpm for 10 minutes, and the supernatant was discarded, then the precipitation was washed twice with PBR to remove ethanol substantially. Into the cell precipitation was added a staining solution (containing 0.1% TritonX-100, 0.1 mM EDTApH7.4, 0.01 mg/ml RNase A, 50 μg/ml propidium iodide). Cell fluorescence was detected with flow cytometry after the cells in staining solution for 30 minutes at 4° C. away from light, and percentage and cycle of apoptotic cells were calculated by analyzing DNA content. The results were obtained by flow cytometry laboratory of Institute of Biochemistry and Cell Biology, CAS.
As illustrated from the above results, it may be seen that caspase-3 inhibitors could protect PC12 markedly and resist apoptosis of PC12 mediated by neurotoxicity of Aβ of Aβ25-35, and they have no toxicity in low concentration themselves.

[3] = Aβ25-35 and inhibitor (2 μM Ac-DEVD-CHO, 28 μM Chen-1) in the medium at the same time
[4] = only caspase-3 inhibitor added, no Aβ25-35, after 72 hours

SMILES	toxic effect on PC12 cells (morphology) (PC12 cells [1])	percentage of apoptotic cells (PC12 cells [2]; [3])	percentage of apoptotic cells (PC12 cells [2]; [4])
O=C1NC(=O)c2ccccc2C1=O [Chen-1]	no toxic effect	4.09%	2.15%
CC(=O)N[C@@H](CC(=O)O)C(=O)N[C@@H](CCC(=O)O)C(=O)N[C@H](C(=O)N[C@H](C=O)CC(=O)O)C(C)C [Ac-DEVD-CHO, Ac-Asp-Glu-Val-Asp-aldehyde]	no toxic effect	4.01%	2.27%

Source: patent US7683073B2, “Isoquinoline-1,3,4-trione compounds, the synthetic method and the use thereof” (Shanghai Institute of Materia Medica, Chinese Academy of …, priority 2005, dated 2010)
